ChEMBL document CHEMBL5705893, “Targeting the mitotic checkpoint for cancer therapy with NMS-P715, an inhibitor of MPS1 kinase” (Cancer Res, 2010)
The source made the active and inactive calls. The rule behind the calls is not given here.

Experiments:
COLO-741 = assay: Antiproliferative activity against human COLO-741 cells assessed as inhibition of cell growth incubated for 72 hrs by celltiter-glo assay; assay type: functional, cell-based; settings: COLO-741, 72 h
A2780 [1] = assay: Cell cycle arrest in human A2780 cells assessed as accumulation of cells at G2/M phase at 0.2 to 1 micromol/L incubated for 24 hrs by FACS/PI staining based flow cytometric analysis; assay type: functional; settings: dose 0.2-1 µmol/L
[2] = target: T1, Serine/threonine-protein kinase Nek6 (Homo sapiens, UniProt Q9HC98); assay: Inhibition of recombinant NEK6 (unknown origin)
T1 sequence (Q9HC98 whole entry): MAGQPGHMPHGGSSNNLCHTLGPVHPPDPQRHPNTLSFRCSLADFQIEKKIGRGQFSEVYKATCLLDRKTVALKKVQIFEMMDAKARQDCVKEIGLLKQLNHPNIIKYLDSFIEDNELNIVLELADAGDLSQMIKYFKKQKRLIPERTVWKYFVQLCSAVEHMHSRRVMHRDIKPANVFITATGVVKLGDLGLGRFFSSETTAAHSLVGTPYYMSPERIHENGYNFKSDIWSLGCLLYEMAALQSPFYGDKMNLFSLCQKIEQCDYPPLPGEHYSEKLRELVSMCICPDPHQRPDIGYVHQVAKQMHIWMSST

HeLa [3] = assay: Induction of mitotic arrest in human nocodazole-arrested HeLa cells assessed as delocalization of BUB1 at 1 micromol/L in presence of MG132; assay type: functional, cell-based; settings: dose 1.0 µmol/L
ACHN = assay: Antiproliferative activity against human ACHN cells assessed as inhibition of cell growth incubated for 72 hrs by celltiter-glo assay; assay type: functional, cell-based
BXPC-3 = assay: Antiproliferative activity against human BXPC-3 cells assessed as inhibition of cell growth incubated for 72 hrs by celltiter-glo assay; assay type: functional, cell-based; settings: BXPC-3, 72 h
MCF7 = assay: Antiproliferative activity against human MCF7 cells assessed as inhibition of cell growth incubated for 72 hrs by celltiter-glo assay; assay type: functional, cell-based; settings: MCF7, 72 h
MOLM-13 = assay: Antiproliferative activity against human MOLM-13 cells assessed as inhibition of cell growth incubated for 72 hrs by celltiter-glo assay; assay type: functional, cell-based; settings: MOLM-13, 72 h
NCI-H82 = assay: Antiproliferative activity against human NCI-H82 cells assessed as inhibition of cell growth incubated for 72 hrs by celltiter-glo assay; assay type: functional, cell-based; settings: NCI-H82, 72 h
[4] = AUC in Athymic nu-nu mouse at 10 mg/kg, po measured upto 24 hrs by LC-MS/MS analysis; assay type: ADME, organism-based; settings: in vivo
MV4-11 = assay: Antiproliferative activity against human MV4-11 cells assessed as inhibition of cell growth incubated for 72 hrs by celltiter-glo assay; assay type: functional, cell-based; settings: MV4-11, 72 h
[5] = Inhibition of recombinant AUR2 (unknown origin); set-up: species or system Homo sapiens
[6] = target: Non-receptor tyrosine-protein kinase TYK2 (Homo sapiens, UniProt P29597); assay: Inhibition of recombinant TYK 2 (unknown origin)
BT-549 = assay: Antiproliferative activity against human BT-549 cells assessed as inhibition of cell growth incubated for 72 hrs by celltiter-glo assay; assay type: functional, cell-based; settings: BT-549, 72 h
[7] = target: Vascular endothelial growth factor receptor 2 (Homo sapiens, UniProt P35968); assay: Inhibition of recombinant VEGFR2 (unknown origin)
Chain of Vascular endothelial growth factor receptor 2 (P35968 whole entry): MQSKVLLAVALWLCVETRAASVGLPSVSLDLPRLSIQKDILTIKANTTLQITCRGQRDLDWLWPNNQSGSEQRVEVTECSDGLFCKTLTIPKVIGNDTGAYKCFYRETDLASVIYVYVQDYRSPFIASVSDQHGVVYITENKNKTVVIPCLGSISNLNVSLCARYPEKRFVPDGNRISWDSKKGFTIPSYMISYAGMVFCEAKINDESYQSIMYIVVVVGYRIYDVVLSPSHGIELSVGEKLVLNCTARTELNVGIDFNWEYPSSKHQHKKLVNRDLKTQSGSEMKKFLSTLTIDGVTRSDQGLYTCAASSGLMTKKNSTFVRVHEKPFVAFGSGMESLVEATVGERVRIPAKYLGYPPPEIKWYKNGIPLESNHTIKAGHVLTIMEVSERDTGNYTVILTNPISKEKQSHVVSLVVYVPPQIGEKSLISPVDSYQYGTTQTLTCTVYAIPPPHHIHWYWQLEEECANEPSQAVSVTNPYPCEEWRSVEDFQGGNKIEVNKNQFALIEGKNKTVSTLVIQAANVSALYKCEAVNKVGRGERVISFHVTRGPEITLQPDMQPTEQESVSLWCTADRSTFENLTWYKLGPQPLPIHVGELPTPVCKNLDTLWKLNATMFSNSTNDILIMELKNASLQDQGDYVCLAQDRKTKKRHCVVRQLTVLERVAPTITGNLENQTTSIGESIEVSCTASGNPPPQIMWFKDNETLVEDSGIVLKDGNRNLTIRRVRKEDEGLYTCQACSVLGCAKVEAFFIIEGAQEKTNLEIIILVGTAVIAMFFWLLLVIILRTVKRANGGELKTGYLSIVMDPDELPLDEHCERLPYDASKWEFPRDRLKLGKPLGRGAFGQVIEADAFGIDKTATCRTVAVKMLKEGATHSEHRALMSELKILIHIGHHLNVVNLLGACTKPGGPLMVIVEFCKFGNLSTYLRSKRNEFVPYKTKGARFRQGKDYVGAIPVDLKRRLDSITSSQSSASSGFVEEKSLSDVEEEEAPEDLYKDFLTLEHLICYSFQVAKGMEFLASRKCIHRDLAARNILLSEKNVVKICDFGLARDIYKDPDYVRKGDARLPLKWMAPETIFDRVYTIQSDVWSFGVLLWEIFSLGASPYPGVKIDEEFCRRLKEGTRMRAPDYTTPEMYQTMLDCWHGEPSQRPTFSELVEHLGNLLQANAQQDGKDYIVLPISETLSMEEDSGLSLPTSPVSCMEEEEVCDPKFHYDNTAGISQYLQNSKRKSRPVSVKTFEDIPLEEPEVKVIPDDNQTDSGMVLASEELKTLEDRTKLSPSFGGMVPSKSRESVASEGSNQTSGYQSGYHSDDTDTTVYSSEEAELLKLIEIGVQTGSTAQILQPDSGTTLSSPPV

Calu-3 = assay: Antiproliferative activity against human Calu-3 cells assessed as inhibition of cell growth incubated for 72 hrs by celltiter-glo assay; assay type: functional, cell-based; settings: Calu-3, 72 h
[8] = target: Inhibitor of nuclear factor kappa-B kinase subunit beta (Homo sapiens, UniProt O14920); assay: Inhibition of recombinant IKK2 (unknown origin)
[9] = Toxicity in Athymic nu-nu nude mouse xenografted with human A2780 cells assessed as body weight loss at 90 mg/kg, po administered once a day for 7 days; assay type: organism-based; settings: in vivo, 168 h, time 7 day
SW-403 = assay: Antiproliferative activity against human SW403 cells assessed as inhibition of cell growth incubated for 72 hrs by celltiter-glo assay; assay type: functional, cell-based; settings: SW-403, 72 h
Activated CDC42 kinase 1 = Activated CDC42 kinase 1 (Homo sapiens, UniProt Q07912); assay: Inhibition of recombinant ACK1 (unknown origin)
Chain of Activated CDC42 kinase 1 (Q07912 whole entry): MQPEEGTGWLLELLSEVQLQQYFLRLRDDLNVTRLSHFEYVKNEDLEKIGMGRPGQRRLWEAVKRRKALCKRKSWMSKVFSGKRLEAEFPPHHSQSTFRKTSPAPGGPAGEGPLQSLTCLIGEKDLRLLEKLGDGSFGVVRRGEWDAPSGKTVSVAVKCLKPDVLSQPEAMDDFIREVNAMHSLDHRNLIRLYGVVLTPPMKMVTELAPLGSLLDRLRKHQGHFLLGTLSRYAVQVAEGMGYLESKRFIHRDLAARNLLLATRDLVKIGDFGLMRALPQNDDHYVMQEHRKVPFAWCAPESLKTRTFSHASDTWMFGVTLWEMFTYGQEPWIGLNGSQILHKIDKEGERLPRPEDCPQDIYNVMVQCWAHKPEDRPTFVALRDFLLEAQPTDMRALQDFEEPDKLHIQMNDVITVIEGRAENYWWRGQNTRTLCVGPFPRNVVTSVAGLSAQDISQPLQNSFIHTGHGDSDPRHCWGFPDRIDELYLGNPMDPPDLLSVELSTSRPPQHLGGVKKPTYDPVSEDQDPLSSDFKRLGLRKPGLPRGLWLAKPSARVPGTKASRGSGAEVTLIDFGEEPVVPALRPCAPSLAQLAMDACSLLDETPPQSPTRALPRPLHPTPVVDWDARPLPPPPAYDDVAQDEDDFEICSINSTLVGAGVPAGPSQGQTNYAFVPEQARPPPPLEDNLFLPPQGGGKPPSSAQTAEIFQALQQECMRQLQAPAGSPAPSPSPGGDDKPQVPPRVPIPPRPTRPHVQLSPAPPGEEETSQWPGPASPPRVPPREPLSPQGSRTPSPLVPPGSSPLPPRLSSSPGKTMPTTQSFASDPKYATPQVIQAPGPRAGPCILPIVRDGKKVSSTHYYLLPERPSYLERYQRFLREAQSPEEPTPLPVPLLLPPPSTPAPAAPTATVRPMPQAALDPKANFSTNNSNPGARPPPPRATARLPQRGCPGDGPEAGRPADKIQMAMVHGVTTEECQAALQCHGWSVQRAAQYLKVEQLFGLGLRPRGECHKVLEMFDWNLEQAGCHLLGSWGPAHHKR

SKM-1 = assay: Antiproliferative activity against human SKM-1 cells assessed as inhibition of cell growth incubated for 72 hrs by celltiter-glo assay; assay type: functional, cell-based; settings: SKM-1, 72 h
[10] = target: MAP kinase-interacting serine/threonine-protein kinase 2 (Homo sapiens, UniProt Q9HBH9); assay: Inhibition of recombinant MNK2 (unknown origin)
Chain of MAP kinase-interacting serine/threonine-protein kinase 2 (Q9HBH9 whole entry): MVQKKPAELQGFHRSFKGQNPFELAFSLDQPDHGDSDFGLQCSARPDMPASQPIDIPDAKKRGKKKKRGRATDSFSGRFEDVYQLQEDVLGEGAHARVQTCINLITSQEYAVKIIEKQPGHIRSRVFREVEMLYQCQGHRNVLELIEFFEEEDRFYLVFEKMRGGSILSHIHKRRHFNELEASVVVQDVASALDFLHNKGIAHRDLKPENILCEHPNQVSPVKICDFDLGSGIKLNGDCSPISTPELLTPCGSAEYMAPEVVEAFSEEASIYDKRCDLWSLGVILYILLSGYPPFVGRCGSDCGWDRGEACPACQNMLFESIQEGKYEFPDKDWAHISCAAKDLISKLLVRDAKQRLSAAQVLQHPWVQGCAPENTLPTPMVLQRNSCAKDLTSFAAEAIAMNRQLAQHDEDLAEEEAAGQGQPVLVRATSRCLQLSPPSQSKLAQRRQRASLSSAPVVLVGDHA

A2780 [11] = assay: Induction of apoptosis in human A2780 cells assessed as upregulation of histone H3 dephosphorylation at 0.2 to 1 micromol/L incubated for 2 to 72 hrs by Western blot analysis; assay type: functional, cell-based; settings: dose 0.2-1 µmol/L, time 2-72 hrs
[12] = target: Mitogen-activated protein kinase 1 (Homo sapiens, UniProt P28482); assay: Inhibition of recombinant ERK2 (unknown origin)
Chain of Mitogen-activated protein kinase 1 (P28482 whole entry): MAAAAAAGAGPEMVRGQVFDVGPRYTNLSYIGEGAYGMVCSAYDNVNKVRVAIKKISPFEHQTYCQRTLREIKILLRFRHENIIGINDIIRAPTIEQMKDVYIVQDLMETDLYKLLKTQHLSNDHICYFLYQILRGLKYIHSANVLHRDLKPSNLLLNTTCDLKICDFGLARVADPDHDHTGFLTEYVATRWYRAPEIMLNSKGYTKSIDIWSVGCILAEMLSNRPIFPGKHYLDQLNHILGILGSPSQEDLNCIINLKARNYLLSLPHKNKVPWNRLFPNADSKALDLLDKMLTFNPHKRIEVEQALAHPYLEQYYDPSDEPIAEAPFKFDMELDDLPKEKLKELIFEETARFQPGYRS

Jurkat = assay: Antiproliferative activity against human Jurkat cells assessed as inhibition of cell growth incubated for 72 hrs by celltiter-glo assay; assay type: functional, cell-based
Casein kinase 2 = Casein kinase 2 (Homo sapiens, UniProt P67870+P68400+P19784+Q8NEV1); assay: Inhibition of recombinant CK2 (unknown origin); assay type: protein assay
MDA-MB-435 = assay: Antiproliferative activity against human MDA-MB-435 cells assessed as inhibition of cell growth incubated for 72 hrs by celltiter-glo assay; assay type: functional, cell-based; settings: MDA-MB-435, 72 h
NCI-H522 = assay: Antiproliferative activity against human NCI-H522 cells assessed as inhibition of cell growth incubated for 72 hrs by celltiter-glo assay; assay type: functional, cell-based; settings: NCI-H522, 72 h
LNCaP = assay: Antiproliferative activity against human LNCaP cells assessed as inhibition of cell growth incubated for 72 hrs by celltiter-glo assay; assay type: functional, cell-based
SR = assay: Antiproliferative activity against human SR cells assessed as inhibition of cell growth incubated for 72 hrs by celltiter-glo assay; assay type: functional, cell-based
[13] = target: Eukaryotic elongation factor 2 kinase (Homo sapiens, UniProt O00418); assay: Inhibition of recombinant EEF2K (unknown origin)
UACC-62 = assay: Antiproliferative activity against human UACC-62 cells assessed as inhibition of cell growth incubated for 72 hrs by celltiter-glo assay; assay type: functional, cell-based; settings: UACC-62, 72 h
[14] = Inhibition of recombinant CDK2/CYCA (unknown origin); set-up: species or system Homo sapiens
[15] = target: Glycogen synthase kinase-3 beta (Homo sapiens, UniProt P49841); assay: Inhibition of recombinant GSK3beta (unknown origin)
Chain of Glycogen synthase kinase-3 beta (P49841 whole entry): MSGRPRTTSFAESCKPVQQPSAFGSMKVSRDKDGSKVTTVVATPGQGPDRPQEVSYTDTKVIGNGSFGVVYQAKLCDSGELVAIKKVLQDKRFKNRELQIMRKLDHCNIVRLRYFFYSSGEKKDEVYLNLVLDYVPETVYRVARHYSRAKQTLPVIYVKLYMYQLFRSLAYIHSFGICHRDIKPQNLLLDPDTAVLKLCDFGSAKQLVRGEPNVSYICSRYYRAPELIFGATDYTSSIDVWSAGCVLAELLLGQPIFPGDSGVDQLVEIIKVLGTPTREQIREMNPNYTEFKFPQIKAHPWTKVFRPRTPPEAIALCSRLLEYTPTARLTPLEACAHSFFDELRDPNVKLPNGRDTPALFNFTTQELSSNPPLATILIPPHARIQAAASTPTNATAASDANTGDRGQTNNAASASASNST

[16] = Antiproliferative activity against human GM03798 cells assessed as inhibition of cell growth incubated for 72 hrs by celltiter-glo assay; assay type: functional, cell-based; settings: GM03798, 72 h
[17] = target: Serine/threonine-protein kinase PLK2 (Homo sapiens, UniProt Q9NYY3); assay: Inhibition of recombinant PLK2 (unknown origin)
Chain of Serine/threonine-protein kinase PLK2 (Q9NYY3 whole entry): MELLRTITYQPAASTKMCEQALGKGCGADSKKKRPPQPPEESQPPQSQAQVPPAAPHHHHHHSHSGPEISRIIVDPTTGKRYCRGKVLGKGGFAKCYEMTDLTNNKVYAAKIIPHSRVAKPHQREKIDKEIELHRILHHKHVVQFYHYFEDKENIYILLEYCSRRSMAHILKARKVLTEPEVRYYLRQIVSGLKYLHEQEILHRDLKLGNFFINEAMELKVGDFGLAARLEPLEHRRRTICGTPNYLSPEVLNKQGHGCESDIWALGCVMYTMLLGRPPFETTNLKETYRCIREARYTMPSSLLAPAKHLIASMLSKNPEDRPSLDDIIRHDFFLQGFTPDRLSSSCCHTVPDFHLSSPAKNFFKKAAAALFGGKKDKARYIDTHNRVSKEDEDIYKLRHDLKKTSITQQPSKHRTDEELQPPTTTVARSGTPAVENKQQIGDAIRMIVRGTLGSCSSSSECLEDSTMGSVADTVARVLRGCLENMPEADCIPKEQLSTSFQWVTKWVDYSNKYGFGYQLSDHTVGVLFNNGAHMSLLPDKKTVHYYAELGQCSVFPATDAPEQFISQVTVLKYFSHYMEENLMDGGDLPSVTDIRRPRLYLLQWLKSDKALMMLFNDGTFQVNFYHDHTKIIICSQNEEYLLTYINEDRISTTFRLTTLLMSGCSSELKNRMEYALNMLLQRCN

HeLa [18] = assay: Inhibition of cdc20-MAD2 protein-protein interaction in human nocodazole arrested HeLa cells by Coimmunoprecipitation analysis; assay type: cell-based
SK-MEL-5 = assay: Antiproliferative activity against human SK-MEL-5 cells assessed as inhibition of cell growth incubated for 72 hrs by celltiter-glo assay; assay type: functional, cell-based; settings: SK-MEL-5, 72 h
M14 = assay: Antiproliferative activity against human M14 cells assessed as inhibition of cell growth incubated for 72 hrs by celltiter-glo assay; assay type: functional, cell-based; settings: M14, 72 h
[19] = target: T1, Serine/threonine-protein kinase Nek6; assay: Inhibition of recombinant NEK6 (unknown origin) preincubated for 60 mins
[20] = Antiproliferative activity against human GM14788 cells assessed as inhibition of cell growth incubated for 72 hrs by celltiter-glo assay; assay type: functional, cell-based; settings: GM14788, 72 h
[21] = Inhibition of recombinant AUR1 (unknown origin); set-up: species or system Homo sapiens
[22] = target: Serine/threonine-protein kinase pim-2 (Homo sapiens, UniProt Q9P1W9); assay: Inhibition of recombinant PIM2 (unknown origin)
Chain of Serine/threonine-protein kinase pim-2 (Q9P1W9 whole entry): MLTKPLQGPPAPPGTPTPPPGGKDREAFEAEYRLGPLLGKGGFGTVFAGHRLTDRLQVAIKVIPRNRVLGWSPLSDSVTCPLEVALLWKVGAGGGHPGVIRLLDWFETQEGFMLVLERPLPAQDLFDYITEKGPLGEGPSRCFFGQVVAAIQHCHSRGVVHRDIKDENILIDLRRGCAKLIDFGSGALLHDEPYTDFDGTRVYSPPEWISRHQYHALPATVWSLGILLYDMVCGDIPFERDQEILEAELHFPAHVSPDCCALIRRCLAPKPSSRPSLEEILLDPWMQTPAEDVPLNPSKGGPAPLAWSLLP

NCI-H1770 = assay: Antiproliferative activity against human NCI-H1770 cells assessed as inhibition of cell growth incubated for 72 hrs by celltiter-glo assay; assay type: functional, cell-based; settings: NCI-H1770, 72 h

With `CCc1cccc(CC)c1NC(=O)c1nn(C)c2c1CCc1cnc(Nc3ccc(C(=O)NC4CCN(C)CC4)cc3OC(F)(F)F)nc1-2` the IC50 (COLO-741) was 10 µM, the Activity (A2780 [1]) was “Active” and the IC50 [2] was 6.02 µM. The Activity (HeLa [3]) was “Active”, the IC50 (ACHN) was 0.015 µM and the IC50 (BXPC-3) was 2.18 µM. For the same molecule, the IC50 (MCF7) was 1.86 µM, the IC50 (MOLM-13) was 1.04 µM and the IC50 (NCI-H82) was 2.59 µM. The AUC at 24 h [4] was 8.66 µM·h, the IC50 (MV4-11) was 1.14 µM and the IC50 [5] was > 10 µM. For the same molecule, the IC50 [6] was > 10 µM, the IC50 (BT-549) was 1.05 µM and the IC50 [7] was > 10 µM. The IC50 (Calu-3) was 1.44 µM, the IC50 [8] was > 10 µM and the Activity [9] was “Non-Toxic”. The IC50 (SW-403) was 1.57 µM, the IC50 (Activated CDC42 kinase 1) was > 10 µM and the IC50 (SKM-1) was 10 µM. The IC50 [10] was > 10 µM, the Activity (A2780 [11]) was “Active” and the IC50 [12] was > 10 µM. The IC50 (Jurkat) was 3.61 µM, the IC50 (Casein kinase 2) was 5.7 µM and the IC50 (MDA-MB-435) was 1.96 µM. For the same molecule, the IC50 (NCI-H522) was 1.21 µM, the IC50 (LNCaP) was 3.07 µM and the IC50 (SR) was 6.96 µM. For the same molecule, the IC50 [13] was > 10 µM, the IC50 (UACC-62) was 4.75 µM and the IC50 [14] was > 10 µM. The IC50 [15] was > 10 µM, the IC50 [16] was 9.4 µM and the IC50 [17] was > 10 µM. For the same molecule, the inhibition (HeLa [18]) was “Active”, the IC50 (SK-MEL-5) was 4.49 µM and the IC50 (M14) was 0.698 µM. For the same molecule, the IC50 [19] was < 10 µM, the IC50 [20] was 10 µM and the IC50 [21] was > 10 µM. The IC50 [22] was > 10 µM and the IC50 (NCI-H1770) was 4.42 µM.
